The test system of this test is lipogenesis in swine adipose tissue. Briefly: inhibition of lipogenesis (incorporation of radioactive glucose carbon into lipid) in slices of swine adipose tissue. The test is classed as cell-based. The following applies: 100 micrograms per milliliter, 37° C., glucose-U^14 C, insulin, 5% DMSO, triplicate; for inhibition at 100 µg/mL: Sus scrofa, 2 h, read-out: Percent Inhibition (of lipogenesis compared to control). An excerpt:
The manner in which they cause this effect is not known with certainty; it is believed that they interfere with the synthesis of fatty acids in the tissues. Their effectiveness for this purpose has been ascertained by immersing samples of swine adipose tissue in a liquid medium containing radioactive glucose and the test chemical, for a period of time, then isolating the lipid from the treated tissue and determining the incorporation of the radioactive carbon into lipid by means of scintillation counting techniques. These tests were conducted in swine adipose tissue because in swine, the primary site of lipogensis--i.e., fatty acid synthesis--appears to be adipose tissue.
Described in more detail, the tests were conducted according to the following general procedure:
150 milligrams of slices of swine adipose tissue were incubated at 37° C. for 2 hours with shaking in 3 milliliters of Krebs-Ringer bicarbonate solution containing one-half the normal calcium ion concentration, 60 micromoles of glucose, 0.5 micro-Curie of glucose-U^14 C, and 300 microunits of insulin, and 5% dimethyl sulfoxide (DMSO). The test compounds were added as suspensions or solutions in DMSO and were present at a concentration of 100 micrograms per milliliter of the incubation mixture.
The incubation was terminated by addition of 0.25 milliliter of 1 N sulfuric acid. The resulting mixture was extracted with a total of 25 milliliters of chloroform: methanol (2:1 v/v). The extracts were washed according to Folch et al. (J. Biol. Chem., 226, 497-509, (1957)), air dried, and counted in a liquid scintillation counter with 15 milliliters of counting fluid (two parts toluene containing 0.4% w/v New England Nuclear Omnifluor: 1 part Triton X-100). The tests were conducted in triplicate and were accompanied by control tests in which all ingredients,proportions and conditions were the same except that no test compound was included. From the data obtained were calculated the percent inhibition of lipid synthesis by the test compound in each case. The data obtained from the tests are set out in Table 1, as the percent inhibition of lipogenesis compared to the results obtained in the control tests wherein only the test compound was omitted.

`CCCCCCC1OC1(C(N)=O)C(=O)OCC` (stereo not drawn) [Compound 2, Ethyl 2-(aminocarbonyl)-3-hexyloxiranecarboxylate cis]: the “Percent Inhibition (of lipogenesis compared to control)” value (2 hours) stood at 83%.

As for `CC(C)OC(=O)C1(C(N)=O)OC1c1ccccc1` (stereo not shown) [Compound 7, 1-Methylethyl 2-(aminocarbonyl)-3-phenyloxiranecarboxylate], the inhibition at 100 µg/mL came out at 48%.

For the compound `CCOC(=O)C1(C(=O)NC)OC1c1ccccc1` (stereo not shown) [Compound 6], the inhibition at 100 µg/mL was 27%.

In the case of `CCCCCCC1OC1(C(N)=O)C(=O)OCC` (stereo not drawn) [Compound 1, Ethyl 2-(aminocarbonyl)-3-hexyloxiranecarboxylate trans], the inhibition at 100 µg/mL was determined as 88%.

For the compound `CCOC(=O)C1(C(N)=O)OC1c1ccc(Cl)c(Cl)c1` (stereo not shown) [Compound 13], the inhibition at 100 µg/mL turned out to be 87%.

On to `CCOC(=O)C1(C(N)=O)OC1C` (stereo not shown) [Compound 3, Ethyl 2-(aminocarbonyl)-3-methyloxiranecarboxylate], for which the inhibition at 100 µg/mL worked out at 18%.

With `CCOC(=O)C1(C(N)=O)OC1C1CCCCC1` (stereo not shown) [Compound 4, Ethyl 2-(Aminocarbonyl)-3-cyclohexyloxiranecarboxylate], the inhibition at 100 µg/mL worked out at 75%.

Consider `CCOC(=O)C1(C(N)=O)OC1c1ccc(Cl)cc1` (stereo not shown) [Compound 9], for which the inhibition at 100 µg/mL turned out to be 65%.

In the case of `CCOC(=O)C1(C(N)=O)OC1C(=O)c1ccccc1` (stereo not shown) [Compound 16, Ethyl 2-(aminocarbonyl)-3-benzoyloxiranecarboxylate], the inhibition at 100 µg/mL is 74%.

Turning to `CCOC(=O)C1(C(N)=O)OC1c1ccc(C)cc1` (stereo not shown) [Compound 10], the inhibition at 100 µg/mL was 37%.

As to `CCOC(=O)C1(C(N)=O)OC1c1cccc([N+](=O)[O-])c1` (stereo not shown) [Compound 12], the inhibition at 100 µg/mL was 76%.

Turning to `COC(=O)C1(C(N)=O)OC1c1ccccc1` (stereo not shown) [Compound 8, Methyl 2-(aminocarbonyl)-3-phenyloxiranecarboxylate], the inhibition at 100 µg/mL turned out to be 47%.

For the compound `CCOC(=O)C1(C(N)=O)OC1c1ccc([N+](=O)[O-])cc1` (stereo not shown) [Compound 15], the inhibition at 100 µg/mL was 37%.

Consider `CCOC(=O)C1(C(N)=O)OC1c1ccccc1` (stereo not shown) [Compound 5, Ethyl 2-(aminocarbonyl)-3-phenyloxiranecarboxylate], for which the inhibition at 100 µg/mL amounted to 85%.

Take `CCOC(=O)C1(C(N)=O)OC1c1ccc(OC)c(OC)c1` (stereo not shown) [Compound 11]: the inhibition at 100 µg/mL is 33%.

Take `CCOC(=O)C1(C(N)=O)OC1c1ccc(OC)cc1` (stereo not shown) [Compound 14]: the inhibition at 100 µg/mL is 55%.

One may read the inhibition as the drop in the measured response relative to a control, in per cent.

Values taken from patent publication US4235923A, “Esters of 3-substituted-2-(aminocarbonyl)oxiranecarboxylic acids as lipogenesis inhibitors” (Shell Oil Company, priority 1979, dated 1980).
